From EP0545195B1, “Indolopyrrolocarbazole derivatives” (BANYU PHARMACEUTICAL CO., LTD., priority 1991, dated 1993)

Columns and labels:
[1] = system: mouse leukemia cell P388; assay: Proliferation inhibition activity against mouse leukemia cell (Thiazoyl Blue assay); assay type: cell-based; details: P388 cells, 24 hours culture with test compound, absorbance at 550 nm, read-out: 50% inhibitory concentration (IC₅₀)
Experimental: (2) Proliferation inhibition activity against mouse leukemia cell
100 µl portions of a cell culturing medium (10% fetal bovine serum-containing-RPMI-1640 medium) containing 3x10³ mouse leukemia cell (P388) were put in a 96-hole microplate, the cells were cultured under 5% CO₂ at 37°C for 24 hours, 10 µl each of test solutions containing test compounds respectively were added respectively, and the cells were further cultured under 5% CO₂ at 37°C for 24 hours. 10 µl portions of 0.5% Thiazoyl Blue were added to the culture broths, and incubation was carried out under 5% CO₂ at 37°C for 2 hours to carry out enzymatic reaction. 20% sodium dodecyl sulfate (SDS) was added to discontinue the reaction, incubation was further carried out at 37°C for 4 hours to dissolve the formed dye, and absorbance at 550 nm was measured and compared with the control group.

[2] = system: mouse tumor (P388); assay: Therapeutic effect against mouse tumor (P388); assay type: in vivo; details: P388, 10⁶ cancer cells inoculated i.p.
From the text: (1) Therapeutic effect against mouse tumor (P388)

[3] = dose 1 mg/kg/injection i.p. once a day from 1st to 10th day
[4] = dose 3 mg/kg/injection i.p. once a day from 1st to 10th day
[5] = dose 10 mg/kg/injection i.p. once a day from 1st to 10th day
[6] = dose 30 mg/kg/injection i.p. once a day from 1st to 10th day
[7] = dose 100 mg/kg/injection i.p. once a day from 1st to 10th day

| Structure (SMILES) | IC50 [1] | further results |
| --- | --- | --- |
| O=C(O)C=NN1C(=O)c2c(c3c4cccc(O)c4n([C@@H]4O[C@H](CO)[C@@H](O)[C@H](O)[C@H]4O)c3c3[nH]c4c(O)cccc4c23)C1=O [Example 2] | 0.29 µM | MST (mean survival number of days) [2, 3]: 15.8 ± 0.84 days; T/C (%) (MST of treatment group/MST of control x 100) [2, 3]: 128%; MST (mean survival number of days) [2, 4]: 17.8 ± 1.92 days; T/C (%) (MST of treatment group/MST of control x 100) [2, 4]: 145%; MST (mean survival number of days) [2, 5]: >26.4 ± 18.82 days; T/C (%) (MST of treatment group/MST of control x 100) [2, 5]: >245%; MST (mean survival number of days) [2, 6]: >42.2 ± 24.38 days; T/C (%) (MST of treatment group/MST of control x 100) [2, 6]: >343%; MST (mean survival number of days) [2, 7]: >47.2 ± 18.90 days; T/C (%) (MST of treatment group/MST of control x 100) [2, 7]: >384% |
| O=C(NN1C(=O)c2c(c3c4cccc(O)c4n([C@@H]4O[C@H](CO)[C@@H](O)[C@H](O)[C@H]4O)c3c3[nH]c4c(O)cccc4c23)C1=O)c1ccccn1 [Example 35] | 0.17 µM | – |
| O=C(O)CCC=NN1C(=O)c2c(c3c4cccc(O)c4n([C@@H]4O[C@H](CO)[C@@H](O)[C@H](O)[C@H]4O)c3c3[nH]c4c(O)cccc4c23)C1=O [Example 3] | 0.065 µM | – |
| O=C(Nc1ccccc1)NN1C(=O)c2c(c3c4cccc(O)c4n([C@@H]4O[C@H](CO)[C@@H](O)[C@H](O)[C@H]4O)c3c3[nH]c4c(O)cccc4c23)C1=O [Example 33] | 0.11 µM | – |
| NNC(=O)NN1C(=O)c2c(c3c4cccc(O)c4n([C@@H]4O[C@H](CO)[C@@H](O)[C@H](O)[C@H]4O)c3c3[nH]c4c(O)cccc4c23)C1=O [Example 22] | 0.11 µM | – |
| CNN1C(=O)c2c(c3c4cccc(O)c4n([C@@H]4O[C@H](CO)[C@@H](O)[C@H](O)[C@H]4O)c3c3[nH]c4c(O)cccc4c23)C1=O [Example 7] | 0.091 µM | – |
| NC(=S)NN1C(=O)c2c(c3c4cccc(O)c4n([C@@H]4O[C@H](CO)[C@@H](O)[C@H](O)[C@H]4O)c3c3[nH]c4c(O)cccc4c23)C1=O [Example 10] | 0.46 µM | – |
| O=C1c2c(c3c4cccc(O)c4n([C@@H]4O[C@H](CO)[C@@H](O)[C@H](O)[C@H]4O)c3c3[nH]c4c(O)cccc4c23)C(=O)N1NC(=O)C(F)(F)F [Example 13] | 0.22 µM | – |
| O=C(O)CNN1C(=O)c2c(c3c4cccc(O)c4n([C@@H]4O[C@H](CO)[C@@H](O)[C@H](O)[C@H]4O)c3c3[nH]c4c(O)cccc4c23)C1=O [Example 8] | 0.3 µM | – |
| CO[C@H]1[C@H](O)[C@@H](O)[C@H](n2c3c(Cl)cccc3c3c4c(c5c6cccc(Cl)c6[nH]c5c32)C(=O)N(N)C4=O)O[C@@H]1CO [Example 4, 6-N-aminorebeccamycin] | 0.096 µM | – |
| O=C1c2c(c3c4cccc(O)c4n([C@@H]4O[C@H](CO)[C@@H](O)[C@H](O)[C@H]4O)c3c3[nH]c4c(O)cccc4c23)C(=O)N1Nc1ccccn1 [Example 15] | 0.31 µM | – |
| O=CNN1C(=O)c2c(c3c4cccc(O)c4n([C@@H]4O[C@H](CO)[C@@H](O)[C@H](O)[C@H]4O)c3c3[nH]c4c(O)cccc4c23)C1=O [Example 5] | 0.28 µM | MST (mean survival number of days) [2, 3]: 16.8 ± 0.84 days; T/C (%) (MST of treatment group/MST of control x 100) [2, 3]: 137%; MST (mean survival number of days) [2, 4]: 17.8 ± 1.92 days; T/C (%) (MST of treatment group/MST of control x 100) [2, 4]: 145%; MST (mean survival number of days) [2, 5]: >26.2 ± 10.18 days; T/C (%) (MST of treatment group/MST of control x 100) [2, 5]: >213%; MST (mean survival number of days) [2, 6]: >23.4 ± 9.74 days; T/C (%) (MST of treatment group/MST of control x 100) [2, 6]: >190%; MST (mean survival number of days) [2, 7]: >36.4 ± 8.05 days; T/C (%) (MST of treatment group/MST of control x 100) [2, 7]: >296% |
| O=C1c2c(c3c4cccc(O)c4n([C@@H]4O[C@H](CO)[C@@H](O)[C@H](O)[C@H]4O)c3c3[nH]c4c(O)cccc4c23)C(=O)N1N1CCCC1 [Example 37] | 0.095 µM | – |

Now those with a lower IC50 [1], led by results:

| IC50 [1] | Structure (SMILES) | further results |
| --- | --- | --- |
| 0.048 µM | O=C1c2c(c3c4cccc(O)c4n([C@@H]4O[C@H](CO)[C@@H](O)[C@H](O)[C@H]4O)c3c3[nH]c4c(O)cccc4c23)C(=O)N1NC1=NCCN1 [Example 25] | – |
| 0.027 µM | CC(C)(C)OC(=O)NN1C(=O)c2c(c3c4cccc(O)c4n([C@@H]4O[C@H](CO)[C@@H](O)[C@H](O)[C@H]4O)c3c3[nH]c4c(O)cccc4c23)C1=O [Example 27] | – |
| 0.059 µM | CC(=O)NN1C(=O)c2c(c3c4cccc(O)c4n([C@@H]4O[C@H](CO)[C@@H](O)[C@H](O)[C@H]4O)c3c3[nH]c4c(O)cccc4c23)C1=O [Example 6] | – |
| 0.002 µM | O=C1c2c(c3c4cccc(O)c4n([C@@H]4O[C@H](CO)[C@@H](O)[C@H](O)[C@H]4O)c3c3[nH]c4c(O)cccc4c23)C(=O)N1NCCO [Example 36] | – |
| 0.028 µM | NC(=O)NN1C(=O)c2c(c3c4cccc(O)c4n([C@@H]4O[C@H](CO)[C@@H](O)[C@H](O)[C@H]4O)c3c3[nH]c4c(O)cccc4c23)C1=O [Example 9] | – |
| 0.003 µM | COC(=O)NN1C(=O)c2c(c3c4cccc(O)c4n([C@@H]4O[C@H](CO)[C@@H](O)[C@H](O)[C@H]4O)c3c3[nH]c4c(O)cccc4c23)C1=O [Example 30] | – |
| 0.019 µM | O=C(NN1C(=O)c2c(c3c4cccc(O)c4n([C@@H]4O[C@H](CO)[C@@H](O)[C@H](O)[C@H]4O)c3c3[nH]c4c(O)cccc4c23)C1=O)c1ccccc1 [Example 34] | – |
| 0.001 µM | N#CCCNN1C(=O)c2c(c3c4cccc(O)c4n([C@@H]4O[C@H](CO)[C@@H](O)[C@H](O)[C@H]4O)c3c3[nH]c4c(O)cccc4c23)C1=O [Example 24] | – |
| < 0.03 µM | NN1C(=O)c2c(c3c4cccc(O)c4n([C@@H]4O[C@H](CO)[C@@H](O)[C@H](O)[C@H]4O)c3c3[nH]c4c(O)cccc4c23)C1=O [Example 1] | – |
| 0.044 µM | NC(=O)C(=O)NN1C(=O)c2c(c3c4cccc(O)c4n([C@@H]4O[C@H](CO)[C@@H](O)[C@H](O)[C@H]4O)c3c3[nH]c4c(O)cccc4c23)C1=O [Example 17] | – |
| < 0.027 µM | NC(=O)CNN1C(=O)c2c(c3c4cccc(O)c4n([C@@H]4O[C@H](CO)[C@@H](O)[C@H](O)[C@H]4O)c3c3[nH]c4c(O)cccc4c23)C1=O [Example 14] | – |
| 0.042 µM | CCC(=O)NN1C(=O)c2c(c3c4cccc(O)c4n([C@@H]4O[C@H](CO)[C@@H](O)[C@H](O)[C@H]4O)c3c3[nH]c4c(O)cccc4c23)C1=O [Example 12] | – |
| < 0.025 µM | O=C1c2c(c3c4cccc(O)c4n([C@@H]4O[C@H](CO)[C@@H](O)[C@H](O)[C@H]4O)c3c3[nH]c4c(O)cccc4c23)C(=O)N1NCc1cccc(O)c1 [Example 23] | – |
| 0.011 µM | CC1(C)OC[C@@H]([C@@H](O)C(=O)NN2C(=O)c3c(c4c5cccc(O)c5n([C@@H]5O[C@H](CO)[C@@H](O)[C@H](O)[C@H]5O)c4c4[nH]c5c(O)cccc5c34)C2=O)O1 [Example 31] | – |
| < 0.026 µM | CS(=O)(=O)NN1C(=O)c2c(c3c4cccc(O)c4n([C@@H]4O[C@H](CO)[C@@H](O)[C@H](O)[C@H]4O)c3c3[nH]c4c(O)cccc4c23)C1=O [Example 11] | – |
| 0.005 µM | O=C1c2c(c3c4cccc(O)c4n([C@@H]4O[C@H](CO)[C@@H](O)[C@H](O)[C@H]4O)c3c3[nH]c4c(O)cccc4c23)C(=O)N1N(Cc1ccccc1)Cc1ccccc1 [Example 29] | – |
| < 0.029 µM | C=CCNN1C(=O)c2c(c3c4cccc(O)c4n([C@@H]4O[C@H](CO)[C@@H](O)[C@H](O)[C@H]4O)c3c3[nH]c4c(O)cccc4c23)C1=O [Example 28] | – |
